In article PMC7891606 (Clinical Pharmacology in Drug Development, 2020):
“Also recorded” adds a separate entry of the source. Where two headings read alike, the source gives them in different places.

Legend:
[1] = Effect of opicapone on plasma L‐dopa and 3‐OMD exposure; format: in vivo, healthy Japanese adult males
[2] = Safety and tolerability; format: in vivo, healthy Japanese adult males; conditions: for Tolerability: opicapone tablets 5 to 50 mg once daily for 11 days
[3] = previous pharmacokinetic study; cited from earlier work
[4] = period 1, before opicapone
[5] = after metabolism by peripheral AADC and COMT; cited from earlier work
[6] = clinical; conditions: male, human, in vivo, po, 100 mg
[7] = opicapone 50 mg, period 2, N 20
[8] = opicapone 50 mg, period 3, N 19

SMILES: Cc1c(Cl)c(C)[n+]([O-])c(Cl)c1-c1noc(-c2cc(O)c(O)c([N+](=O)[O-])c2)n1 [Opicapone, opicapone]
- Change of Cmax and AUC of 3‐OMD following opicapone administration ([1]; especially at the highest opicapone doses): decreased notably
- Change of AUC of L‐dopa with increasing opicapone dose ([1]; opicapone 5-50 mg, plateau at 25 mg and higher): increased with increasing opicapone dose; also recorded: tended to increase with increasing opicapone dose; also recorded: plateau in the increase in L‐dopa exposure
- Number (%) of Subjects Reporting Adverse Event: Diarrhea ([2]; opicapone 5 mg, period 3, N 20): 1 (5.0) Number (%) of Subjects
- Number (%) of Subjects Reporting Adverse Event: Nausea ([2]; opicapone 25 mg, period 3, N 20): 3 (15.0) Number (%) of Subjects
- Subjects who stopped treatment due to adverse event (infectious enteritis) ([2]; opicapone 50 mg cohort): 1 subject
- Number (%) of Subjects Reporting Adverse Event: All ([2]; opicapone 50 mg, period 2 (opicapone once daily 11 days), N 20): 2 (10.0) Number (%) of Subjects
- Number (%) of Subjects Reporting Adverse Event: Enteritis, infectious [2, 7]: 1 (5.0) Number (%) of Subjects
- Number (%) of Subjects Reporting Adverse Event: Pharyngitis [2, 7]: 1 (5.0) Number (%) of Subjects
- Number (%) of Subjects Reporting Adverse Event: Nausea [2, 8]: 5 (26.3) Number (%) of Subjects
- Number (%) of Subjects Reporting Adverse Event: Vomiting [2, 8]: 3 (15.8) Number (%) of Subjects
- Tolerability [2]: well tolerated; also recorded: well tolerated with no safety issues
- Tolerability ([2]; listed as opicapone): well tolerated at all doses with no major safety issues
- Causal relationship of adverse events to opicapone or L‐dopa/carbidopa ([2]; period 2): no adverse events reported in period 2 were thought to be related
- Causal relationship of adverse events to opicapone or L‐dopa/carbidopa ([2]; period 3): at least possibly related
- Increase of L‐dopa trough levels and extent of exposure compared with entacapone [3]: superior response to entacopone

SMILES: N[C@@H](Cc1ccc(O)c(O)c1)C(=O)O [L‐dopa, levodopa]
- tmax in plasma (median (min-max)) ([4]; opicapone 5 mg cohort (A), first dose of L-dopa/carbidopa): 0.50 (0.50‐2.00) h
- tmax in plasma (median (min-max)) ([4]; opicapone 10 mg cohort (B), second dose of L-dopa/carbidopa): 0.50 (0.50‐2.00) h
- tmax in plasma (median (min-max)) ([4]; opicapone 50 mg cohort (D), first dose of L-dopa/carbidopa): 0.50 (0.50‐2.00) h
- Bioavailable dose in the brain [5]: approximately 1 % of the ingested dose
- Cmax [6]: 1950 ± 581 ng/mL
- Tmax [6]: 30 min
